Data reported in patent publication US8012979B2, “Compounds and their uses 707” (AstraZeneca AB, priority 2007, dated 2011).

Molecular target: T1, human active recombinant p38α-6His tagged (Homo sapiens, UniProt Q16539)
T1 construct: 6His
Test: p38 Alpha Enzyme Assay (AlphaScreen, biotinylated-ATF2 substrate)
Assay type: biochemical
Settings: pre-incubated 4 hours at 37° C., reaction initiated with ATP; 0.5 nM enzyme; read-out: p38 pIC50 (converted)

T1 sequence (Q16539 whole entry): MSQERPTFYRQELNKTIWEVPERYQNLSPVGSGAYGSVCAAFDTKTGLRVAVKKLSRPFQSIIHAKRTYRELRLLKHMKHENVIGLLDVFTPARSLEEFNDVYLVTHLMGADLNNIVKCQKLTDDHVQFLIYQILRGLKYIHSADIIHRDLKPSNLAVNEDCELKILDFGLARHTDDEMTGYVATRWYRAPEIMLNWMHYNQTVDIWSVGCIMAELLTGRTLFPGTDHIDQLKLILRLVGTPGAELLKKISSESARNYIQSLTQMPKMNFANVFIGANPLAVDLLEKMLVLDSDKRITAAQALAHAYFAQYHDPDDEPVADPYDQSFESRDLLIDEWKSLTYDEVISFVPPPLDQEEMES

Compared with `Cc1c(F)cc(C(=O)NC2CC2)cc1-c1ccc2c(=O)n(CC3CC3)cc(CN3CCC[N+]([O-])(CCO)CC3)c2c1` (centres unmarked) [Example 79, 4-((6-(5-(Cyclopropylcarbamoyl)-3-fluoro-2-methylphenyl)-2-(cyclopropylmethyl)-1-oxo-1,2-dihydroisoquinolin-4-yl)methyl)-1-(2-hydroxyethyl)-1,4-diazepane 1-oxide], `Cc1c(F)cc(C(=O)NC2CC2)cc1-c1ccc2c(=O)n(CC3CC3)cc(CN3CCCN(C)CC3)c2c1` [Example 75, N-Cyclopropyl-3-(2-(cyclopropylmethyl)-4-((4-methyl-1,4-diazepan-1-yl)methyl)-1-oxo-1,2-dihydroisoquinolin-6-yl)-5-fluoro-4-methylbenzamide] is 13-fold lower in IC50: 0.631 nM for the first, 0.0501 nM for the second.

`Cc1c(F)cc(C(=O)NC2CC2)cc1-c1ccc2c(=O)n(CC3CC3)cc(CN3CCC[C@H]3CN)c2c1` [Example 128, (S)-3-(4-((2-(Aminomethyl)pyrrolidin-1-yl)methyl)-2-(cyclopropylmethyl)-1-oxo-1,2-dihydroisoquinolin-6-yl)-N-cyclopropyl-5-fluoro-4-methylbenzamide] and `Cc1c(F)cc(C(=O)NC2CC2)cc1-c1ccc2c(=O)n(CC3CC3)cc(CN3C[C@@H](N)C[C@@H]3CO)c2c1` [Example 119, 3-(4-(((2R,4S)-4-Amino-2-(hydroxymethyl)pyrrolidin-1-yl)methyl)-2-(cyclopropylmethyl)-1-oxo-1,2-dihydroisoquinolin-6-yl)-N-cyclopropyl-5-fluoro-4-methylbenzamide] are within 1.5-fold of each other in IC50: 0.316 nM for the first, 0.398 nM for the second.

Compared with `Cc1c(F)cc(C(=O)NC2CC2)cc1-c1ccc2c(=O)n(CC3CC3)cc(CN3CCC(NC(C)C)CC3)c2c1` [Example 84, N-Cyclopropyl-3-(2-(cyclopropylmethyl)-4-((4-(isopropylamino)piperidin-1-yl)methyl)-1-oxo-1,2-dihydroisoquinolin-6-yl)-5-fluoro-4-methylbenzamide], `Cc1c(F)cc(C(=O)NC2CC2)cc1-c1ccc2c(=O)n(CC3CC3)cc(CN3CCN[C@@H](C)C3)c2c1` [Example 82, (S)—N-Cyclopropyl-3-(2-(cyclopropylmethyl)-4-((3-methylpiperazin-1-yl)methyl)-1-oxo-1,2-dihydroisoquinolin-6-yl)-5-fluoro-4-methylbenzamide] is 2-fold lower in IC50: 0.2 nM for the first, 0.1 nM for the second.

Compared with `Cc1c(F)cc(C(=O)NC2CC2)cc1-c1ccc2c(=O)n(CC3CC3)cc(CN3C[C@@H](C)N[C@@H](C)C3)c2c1` [Example 80, N-Cyclopropyl-3-(2-(cyclopropylmethyl)-4-(((3S,5R)-3,5-dimethylpiperazin-1-yl)methyl)-1-oxo-1,2-dihydroisoquinolin-6-yl)-5-fluoro-4-methylbenzamide], `Cc1c(F)cc(C(=O)NC2CC2)cc1-c1ccc2c(=O)n(CC3CC3)cc(CN3CCNC[C@H]3C)c2c1` [Example 86, (R)—N-Cyclopropyl-3-(2-(cyclopropylmethyl)-4-((2-methylpiperazin-1-yl)methyl)-1-oxo-1,2-dihydroisoquinolin-6-yl)-5-fluoro-4-methylbenzamide] is 4-fold lower in IC50: 0.316 nM for the first, 0.0794 nM for the second.

`Cc1ccc(C(=O)NC2CC2)cc1-c1ccc2c(=O)n(CC3CC3)cc(C(=O)NC3CCN(C)CC3)c2c1` [Example 38, 6-(5-(Cyclopropylcarbamoyl)-2-methylphenyl)-2-(cyclopropylmethyl)-N-(1-methylpiperidin-4-yl)-1-oxo-1,2-dihydroisoquinoline-4-carboxamide] and `Cc1ccc(C(=O)NC2CC2)cc1-c1ccc2c(=O)n(CC3CC3)cc(C(=O)N3CC[C@@H](N)C3)c2c1` [Example 37, (R)-3-(4-(3-Aminopyrrolidine-1-carbonyl)-2-(cyclopropylmethyl)-1-oxo-1,2-dihydroisoquinolin-6-yl)-N-cyclopropyl-4-methylbenzamide] are the same in IC50: 3.98 nM for the first, 3.98 nM for the second.

`Cc1c(F)cc(C(=O)NC2CC2)cc1-c1ccc2c(=O)n(CC3CC3)cc(CN3CCN(C)[C@@H](CO)C3)c2c1` [Example 87, (R)—N-Cyclopropyl-3-(2-(cyclopropylmethyl)-4-((3-(hydroxymethyl)-4-methylpiperazin-1-yl)methyl)-1-oxo-1,2-dihydroisoquinolin-6-yl)-5-fluoro-4-methylbenzamide] and `Cc1c(F)cc(C(=O)NC2CC2)cc1-c1ccc2c(=O)n(Cc3ccc(S(C)(=O)=O)cc3)cc(CN3CCN[C@@H](CO)C3)c2c1` [Example 113, (R)—N-Cyclopropyl-3-fluoro-5-(4-((3-(hydroxymethyl)piperazin-1-yl)methyl)-2-(4-(methylsulfonyl)benzyl)-1-oxo-1,2-dihydroisoquinolin-6-yl)-4-methylbenzamide] are within 1.5-fold of each other in IC50: 0.0631 nM for the first, 0.0794 nM for the second.

`CCC(CC)Cn1ccc2cc(-c3cc(C(=O)NC4CC4)ccc3C)ccc2c1=O` [Example 123, N-Cyclopropyl-3-(2-(2-ethylbutyl)-1-oxo-1,2-dihydroisoquinolin-6-yl)-4-methylbenzamide] and `Cc1ccc(C(=O)NC2CC2)cc1-c1ccc2c(=O)n(CC3CCC3)ccc2c1` [Example 124, 3-(2-(Cyclobutylmethyl)-1-oxo-1,2-dihydroisoquinolin-6-yl)-N-cyclopropyl-4-methylbenzamide] are within 1.5-fold of each other in IC50: 3.16 nM for the first, 3.98 nM for the second.

First: Cc1ccc(C(=O)NC2CC2)cc1-c1ccc2c(=O)n(Cc3ccncc3)cc(C(=O)N3CCC(N)CC3)c2c1 [Example 58, 3-(4-(4-Aminopiperidine-1-carbonyl)-1-oxo-2-(pyridin-4-ylmethyl)-1,2-dihydroisoquinolin-6-yl)-N-cyclopropyl-4-methylbenzamide]
Second: Cc1ccc(C(=O)NC2CC2)cc1-c1ccc2c(=O)n(Cc3ccncc3)cc(C(=O)N3CCC(N(C)C)CC3)c2c1 [Example 56, N-Cyclopropyl-3-(4-(4-(dimethylamino)piperidine-1-carbonyl)-1-oxo-2-(pyridin-4-ylmethyl)-1,2-dihydroisoquinolin-6-yl)-4-methylbenzamide]
The IC50 of the first is 4-fold lower: 2 nM for the first, 7.94 nM for the second.

Compared with `Cc1ccc(C(=O)NC2CC2)cc1-c1ccc2c(=O)n(Cc3cccc(OCCNCCO)c3)ccc2c1` [Example 35, N-Cyclopropyl-3-[2-(3-{2-[(2-hydroxyethyl)amino]ethoxy}benzyl)-1-oxo-1,2-dihydroisoquinolin-6-yl]-4-methylbenzamide], `Cc1ccc(C(=O)NC2CC2)cc1-c1ccc2c(=O)n(Cc3cccc(OCCCN(C)C)c3)c(C)cc2c1` [Example 94, N-Cyclopropyl-3-(2-(3-(3-(dimethylamino)propoxy)benzyl)-3-methyl-1-oxo-1,2-dihydroisoquinolin-6-yl)-4-methylbenzamide] is 1.6-fold higher in IC50: 2 nM for the first, 3.16 nM for the second.

First: Cc1ccc(C(=O)NC2CC2)cc1-c1ccc2c(=O)n(Cc3ccc(C(=O)NCCCN4CCCC4)cc3)ccc2c1 [Example 24, N-Cyclopropyl-4-methyl-3-(1-oxo-2-(4-(3-(pyrrolidin-1-yl)propylcarbamoyl)benzyl)-1,2-dihydroisoquinolin-6-yl)benzamide]
Second: CNCCN(C)C(=O)c1ccc(Cn2ccc3cc(-c4cc(C(=O)NC5CC5)ccc4C)ccc3c2=O)cc1 [Example 23, N-Cyclopropyl-4-methyl-3-(2-(4-(methyl(2-(methylamino)ethyl)carbamoyl)benzyl)-1-oxo-1,2-dihydroisoquinolin-6-yl)benzamide]
The IC50 of the first is 3.2-fold lower: 0.631 nM for the first, 2 nM for the second.

Going from `Cc1ccc(C(=O)NC2CC2)cc1-c1ccc2c(=O)n(Cc3ccccc3)cc(C(=O)NCCN3CCCC3)c2c1` [Example 49, 2-Benzyl-6-{5-[(cyclopropylamino)carbonyl]-2-methylphenyl}-1-oxo-N-(2-pyrrolidin-1-ylethyl)-1,2-dihydroisoquinoline-4-carboxamide] to `Cc1ccc(C(=O)NC2CC2)cc1-c1ccc2c(=O)n(Cc3ccccc3)cc(CCCN3CCCC3)c2c1` [Example 100, 3-(2-Benzyl-1-oxo-4-(3-(pyrrolidin-1-yl)propyl)-1,2-dihydroisoquinolin-6-yl)-N-cyclopropyl-4-methylbenzamide], the IC50 falls from 3.16 nM to 1 nM (3.2-fold).

Compared with `Cc1ccc(C(=O)NC2CC2)cc1-c1ccc2c(=O)n(Cc3ccncc3)cc(C(=O)NC3CCNCC3)c2c1` [Example 57, 6-(5-Cyclopropylcarbamoyl-2-methyl-phenyl)-1-oxo-2-pyridin-4-ylmethyl-1,2-dihydro-isoquinoline-4-carboxylic acid piperidin-4-ylamide], `Cc1ccc(C(=O)NC2CC2)cc1-c1ccc2c(=O)n(Cc3ccccc3)cc(C(=O)N3CCN(CCO)CC3)c2c1` [Example 52, 3-(2-Benzyl-4-{[4-(2-hydroxyethyl)piperazin-1-yl]carbonyl}-1-oxo-1,2-dihydroisoquinolin-6-yl)-N-cyclopropyl-4-methylbenzamide] is 6.3-fold higher in IC50: 1.58 nM for the first, 10 nM for the second.

Compared with `Cc1ccc(C(=O)NC2CC2)cc1-c1ccc2c(=O)n(Cc3cccc(OCCCN(C)C)c3)cc(C)c2c1` [Example 93, N-Cyclopropyl-3-(2-(3-(3-(dimethylamino)propoxy)benzyl)-4-methyl-1-oxo-1,2-dihydroisoquinolin-6-yl)-4-methylbenzamide], `Cc1ccc(C(=O)NC2CC2)cc1-c1ccc2c(=O)n(CC3CC3)cc(CN(C)CCN(C)C)c2c1` [Example 68, N-Cyclopropyl-3-(2-(cyclopropylmethyl)-4-(((2-(dimethylamino)ethyl)(methyl)amino)methyl)-1-oxo-1,2-dihydroisoquinolin-6-yl)-4-methylbenzamide] is 2-fold higher in IC50: 2 nM for the first, 3.98 nM for the second.

Compared with `CNCCN(C)Cc1cn(CC2CC2)c(=O)c2ccc(-c3cc(C(=O)NC4CC4)ccc3C)cc12` [Example 64, N-Cyclopropyl-3-(2-(cyclopropylmethyl)-4-((methyl(2-(methylamino)ethyl)amino)methyl)-1-oxo-1,2-dihydroisoquinolin-6-yl)-4-methylbenzamide], `Cc1ccc(C(=O)NC2CC2)cc1-c1ccc2c(=O)n(CC3CC3)cc(CNCCN(C)C)c2c1` [Example 67, N-Cyclopropyl-3-(2-(cyclopropylmethyl)-4-((2-(dimethylamino)ethylamino)methyl)-1-oxo-1,2-dihydroisoquinolin-6-yl)-4-methylbenzamide] is 1.6-fold higher in IC50: 3.16 nM for the first, 5.01 nM for the second.

With `Cc1ccc(C(=O)NC2CC2)cc1-c1ccc2c(=O)n(Cc3ccc(S(C)(=O)=O)cc3)ccc2c1` [Example 5, N-Cyclopropyl-3-[2-(4-methanesulfonyl-benzyl)-1-oxo-1,2-dihydro-isoquinolin-6-yl]-4-methyl-benzamide] the IC50 was 3.16 nM.
